# Measurements from patent EP4789665A1, “TREATMENT OF HIS HYPORESPONDERS” (NewAmsterdam Pharma B.V., priority 2021, dated 2023).
# “And” between values parts separate entries of the source, which are not always exact repeats. Identical values can stand only once.
# Target: T1, CETP (Homo sapiens, UniProt P11597)
# T1 construct: endogenous in cells; host or cells: trial patients (in vivo, circulating plasma CETP)
# T1 sequence (P11597 18-493): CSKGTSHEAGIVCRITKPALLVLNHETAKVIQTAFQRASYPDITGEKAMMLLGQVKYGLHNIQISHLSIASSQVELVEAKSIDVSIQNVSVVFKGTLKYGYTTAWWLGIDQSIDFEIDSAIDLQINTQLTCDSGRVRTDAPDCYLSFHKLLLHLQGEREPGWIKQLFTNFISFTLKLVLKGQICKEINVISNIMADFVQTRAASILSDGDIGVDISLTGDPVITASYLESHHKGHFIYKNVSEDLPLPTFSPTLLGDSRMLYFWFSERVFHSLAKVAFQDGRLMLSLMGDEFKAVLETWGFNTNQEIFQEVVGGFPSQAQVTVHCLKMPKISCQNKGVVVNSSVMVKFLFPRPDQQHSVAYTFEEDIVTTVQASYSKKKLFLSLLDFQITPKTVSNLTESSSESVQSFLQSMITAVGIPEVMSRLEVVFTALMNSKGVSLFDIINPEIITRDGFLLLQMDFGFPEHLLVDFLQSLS
# Assay: Placebo-controlled, double-blind, randomized phase 2 study of obicetrapib as adjunct to high-intensity statin therapy: lipoprotein lipid and apolipoprotein responses
# Type: in vivo
# Settings: for LDL-C by PUC, % Change from Baseline LS mean (95% CI) / LDL-C reduced from baseline (Friedewald formula) / Apo B reduced by / Lp(a) reduced by / non-HDL-C reduced by: 8 weeks; for LDL-C by PUC, % Change from Baseline LS mean (95% CI) / Apo A1 Week 8 change, LS Mean ± SE / Apo B Week 8 change, LS Mean ± SE / HDL-C Week 8 change, LS Mean ± SE / LDL-C (Martin-Hopkins) Week 8 change, LS Mean ± SE / Lp(a) Week 8 change, LS Mean ± SE / Non-HDL-C Week 8 change, LS Mean ± SE / TG Week 8 change, LS Mean ± SE / VLDL-C Week 8 change, LS Mean ± SE / LDL-C (PUC) Week 8 change, LS Mean ± SE / LDL-C reduced from baseline (Friedewald formula) / Apo B reduced by / Lp(a) reduced by / non-HDL-C reduced by: adjunct to high-intensity statin; for LDL-C by PUC, % Change from Baseline LS mean (95% CI): Table 3; for Apo A1 Week 8 change, Median (min, max) / LDL-C (Martin-Hopkins) Week 8 change, Median (min, max) / Lp(a) Week 8 change, Median (min, max) / TG Week 8 change, Median (min, max) / VLDL-C Week 8 change, Median (min, max): adjunct to high-intensity statin therapy; for Apo A1 Week 8 change, LS Mean ± SE / Apo B Week 8 change, LS Mean ± SE / HDL-C Week 8 change, LS Mean ± SE / LDL-C (Martin-Hopkins) Week 8 change, LS Mean ± SE / Lp(a) Week 8 change, LS Mean ± SE / Non-HDL-C Week 8 change, LS Mean ± SE / TG Week 8 change, LS Mean ± SE / VLDL-C Week 8 change, LS Mean ± SE / LDL-C by Friedewald, % Change from Baseline LS mean: MMRM; for LDL-C (PUC) Week 8 change, LS Mean ± SE: analysis of covariance model, Table 9; for ApoB, % change from Baseline Median / HDL-C, % change from Baseline Median / LDL-C by Friedewald, % Change from Baseline (median) / LDL-C by PUC, % Change from Baseline (median) / Non-HDL-C, % Change from Baseline (median): week 8, adjunct to high-intensity statin therapy; for LDL-C by Friedewald, % Change from Baseline LS mean: week 8, adjunct to high-intensity statin; for LDL-C reduced from baseline (Friedewald formula): primary analysis; for LDL-C reduced from baseline (Friedewald formula) / Apo B reduced by / Lp(a) reduced by / non-HDL-C reduced by: stated as reduction
# Procedure: To evaluate the efficacy, safety, and tolerability of obicetrapib as an adjunct to high-intensity statin therapy, a placebo-controlled, double-blind, randomized, phase 2 study was carried out.
# The study consisted of three arms: 1) 5 mg obicetrapib as adjunctive therapy; 2) 10 mg obicetrapib as adjunctive therapy and 3) a placebo arm. The second objective was to evaluate other lipoprotein lipid and apolipoprotein responses, safety and tolerability profiles, and plasma concentrations of obicetrapib during treatment and for several weeks of follow-up. Lastly, this study aimed to determine if different quantitative measures of LDL-C levels produced differences in the treatment effects of CETP inhibition.
# This randomised, double-blind, placebo-controlled, parallel-group phase 2 trial was conducted in male and female patients (18-75 years), treated with high-intensity statin therapy, with LDL-C levels >70 mg/DL and TG levels < 400 mg/dL. Key exclusion criteria were patients with BMI > 40 kg/m; Significant cardiovascular disease; HbA1c > 10%; Uncontrolled hypertension; Active muscle disease; GFR < 60 ml/min; Hepatic dysfunction; Anemia; History of malignancy; Alcohol abuse; Treatment with investigational product; Treatment with PCSK9 inhibitor; Clinically significant condition; and/or prior exposure to a CETP inhibitor. Patients were recruited at 19 sites in the United States. The trial was approved by Independent Ethics Committees, and each patient provided written informed consent. The trial was conducted in accordance with the principles of the Declaration of Helsinki and Good Clinical Practice Guidelines and the protocol was registered on ClinicalTrials.gov (NCT04753606).
# The screening period for this study took up to 2-weeks. Afterwards patients were randomized to placebo, 5 mg obicetrapib or 10 mg obicetrapib for an 8-week treatment period. After the treatment period, patients continued for a 4-week safety follow-up and a 15-week PK follow-up.
# Patients were randomly assigned to receive one of the three treatments investigative treatments. All treatments were to be taken once daily with food for 8 weeks. Safety was assessed throughout the trial by monitoring adverse events and concomitant medication use, 12-lead electrocardiograms (ECGs), vital signs, laboratory safety assessments and physical examinations. Additional assessments included salivary cortisol, plasma aldosterone, high-sensitivity C-reactive protein (hsCRP) and endothelin 1.
# Efficacy assessments included fasted lipid profiles including total cholesterol (TC), HDL-C, LDL-C, triglycerides, apolipoprotein B (ApoB), and derived parameters.
# Total cholesterol and triglycerides were measured by homogenous enzymatic assay using a Modular analyser (cholesterol oxidase peroxidase-peroxidase aminophenazone phenol [CHOP-PAP]) method and a glycerol phosphate oxidase [GPO-PAP] method, respectively. Apolipoprotein B was measured by immunoturbidimetry using reagents from Rolf Greiner Biochemica (Germany) and N apoprotein standard serum from Siemens (Germany). LDL particle size was determined by gradient gel electrophoresis. HDL fraction was separated by a combined ultracentrifugation-precipitation method (β-quantification). HDL-2 and HDL-3 fractions were then separated by further ultracentrifugation. Total-cholesterol in HDL, HDL 2 and HLD-3 fractions, free cholesterol in HDL fraction, triglycerides in HDL fraction and phospholipids in plasma and HDL-fraction were measured using enzymatic methods and reagents from Diasys Diagnostics (Germany). The measurements were performed on an Olympus AU600 automatic analyzer and were calibrated using secondary standards from Roche Diagnostics (total-cholesterol, triglycerides) and Diasys Diagnostics (free cholesterol, phospholipids), respectively. Esterified cholesterol was calculated as the difference between total-cholesterol and free cholesterol.
# The primary outcome measure was LDL-C (percent change). […]
# [1] = 5 mg once daily for 8 weeks as adjunct to high-intensity statin therapy
# [2] = 5 mg once daily, listed as obicetrapib
# [3] = 10 mg once daily for 8 weeks as adjunct to high-intensity statin therapy
# [4] = 10 mg once daily, listed as obicetrapib
smiles,measurement,setting,value
"CCOC(=O)N1c2ccc(C(F)(F)F)cc2[C@@H](N(Cc2cc(C(F)(F)F)cc(C(F)(F)F)c2)c2ncc(OCCCC(=O)O)cn2)C[C@H]1CC [Obicetrapib, (2R,4S)-4-{[3,5-bis(trifluoromethyl)benzyl]-[5-(3-carboxypropoxy)pyrimidin-2-yl]amino}-2-ethyl-6-trifluoromethyl-3,4-dihydro-2H-quinoline-1-carboxylic acid ethyl ester]","ApoB, Change from Baseline Median mg/dL",[1],-22.0 mg/dL
same,"ApoB, EoT Median",[1],65.0 mg/dL
same,"HDL-C, Change from Baseline Median mg/dL",[1],60.0 mg/dL
same,"HDL-C, EoT Median",[1],107.0 mg/dL
same,"LDL-C by Friedewald, EoT Median",[1],51.0 mg/dL
same,"LDL-C by PUC, EoT Median",[1],53.0 mg/dL
same,"Non-HDL-C, EoT Median",[1],71 mg/dL
same,"LDL-C by PUC, % Change from Baseline LS mean (95% CI)",5 mg once daily,-37.98%
same,"Apo A1 Week 8 change, Median (min, max)",5 mg once daily,"44.6% and 44.6 (-10.0, 87.1) %"
same,"LDL-C (Martin-Hopkins) Week 8 change, Median (min, max)",5 mg once daily,"-42.5 (-80.8, 74.4) %"
same,"Lp(a) Week 8 change, Median (min, max)",5 mg once daily,"-33.8 (-84.6, 93.8) %"
same,"TG Week 8 change, Median (min, max)",5 mg once daily,"-11.0 (-53.3, 86.7) %"
same,"VLDL-C Week 8 change, Median (min, max)",5 mg once daily,"-11.5 (-53.5, 83.3) %"
same,"TG Week 8 change, Median (min, max)",[2],-11.0%
same,"VLDL-C Week 8 change, Median (min, max)",[2],-11.5%
same,"Apo A1 Week 8 change, LS Mean ± SE",5 mg once daily,41.1 ± 3.04%
same,"Apo B Week 8 change, LS Mean ± SE",5 mg once daily,-22.4 ± 2.58%
same,"HDL-C Week 8 change, LS Mean ± SE",5 mg once daily,122 ± 6.59%
same,"LDL-C (Martin-Hopkins) Week 8 change, LS Mean ± SE",5 mg once daily,-39.6 ± 3.68%
same,"Lp(a) Week 8 change, LS Mean ± SE",5 mg once daily,-30.9 ± 4.43%
same,"Non-HDL-C Week 8 change, LS Mean ± SE",5 mg once daily,-34.4 ± 3.18%
same,"TG Week 8 change, LS Mean ± SE",5 mg once daily,-6.63 ± 5.32%
same,"VLDL-C Week 8 change, LS Mean ± SE",5 mg once daily,-6.02 ± 5.24%
same,"LDL-C (PUC) Week 8 change, LS Mean ± SE",5 mg once daily,-35.7 ± 3.31%
same,"ApoB, % change from Baseline Median",5 mg once daily,"-24.40% and -24.4 (-58.5, 47.4) %"
same,"HDL-C, % change from Baseline Median",5 mg once daily,"135% and 135.4% and 135 (-26.4, 213) %"
same,"LDL-C by Friedewald, % Change from Baseline (median)",5 mg once daily,"-42.90% and -42.9 (-81.9, 72.4) %"
same,"LDL-C by PUC, % Change from Baseline (median)",5 mg once daily,"-41.5% and -41.45% and -41.5 (-71.2, 62.3) %"
same,"Non-HDL-C, % Change from Baseline (median)",5 mg once daily,"-38.9% and -38.9 (-65.6, 66.3) %"
same,"LDL-C by PUC, % Change from Baseline (median)",[2],-41.5%
same,"LDL-C by Friedewald, % Change from Baseline LS mean",5 mg once daily,-37.94% and -38.0 ± 3.49%
same,LDL-C reduced from baseline (Friedewald formula),5 mg,42.9%
same,Apo B reduced by,5 mg,24.4%
same,Lp(a) reduced by,5 mg,33.8%
same,non-HDL-C reduced by,5 mg,38.9%
same,"ApoB, Change from Baseline Median mg/dL",[3],-24.5 mg/dL
same,"ApoB, EoT Median",[3],58.5 mg/dL
same,"HDL-C, Change from Baseline Median mg/dL",[3],72.0 mg/dL
same,"HDL-C, EoT Median",[3],117.5 mg/dL
same,"LDL-C by Friedewald, EoT Median",[3],52.0 mg/dL
same,"LDL-C by PUC, EoT Median",[3],49.5 mg/dL
same,"Non-HDL-C, EoT Median",[3],69 mg/dL
same,"LDL-C by PUC, % Change from Baseline LS mean (95% CI)",10 mg once daily,-44.15%
same,"Apo A1 Week 8 change, Median (min, max)",10 mg once daily,"47.8% and 47.8 (13.5, 106) %"
same,"LDL-C (Martin-Hopkins) Week 8 change, Median (min, max)",10 mg once daily,"-49.2 (-77.0, 28.1) %"
same,"Lp(a) Week 8 change, Median (min, max)",10 mg once daily,"-56.5 (-85.7, 18.3) %"
same,"TG Week 8 change, Median (min, max)",10 mg once daily,"-7.85 (-63.7, 129) %"
same,"VLDL-C Week 8 change, Median (min, max)",10 mg once daily,"-7.90 (-44.4, 125) %"
same,"LDL-C (Martin-Hopkins) Week 8 change, Median (min, max)",[4],-49.2%
same,"Apo A1 Week 8 change, LS Mean ± SE",10 mg once daily,52.3 ± 3.04%
same,"Apo B Week 8 change, LS Mean ± SE",10 mg once daily,-28.1 ± 2.56%
same,"HDL-C Week 8 change, LS Mean ± SE",10 mg once daily,157 ± 6.54%
same,"LDL-C (Martin-Hopkins) Week 8 change, LS Mean ± SE",10 mg once daily,-46.9 ± 3.65%
same,"Lp(a) Week 8 change, LS Mean ± SE",10 mg once daily,-42.0 ± 4.33%
same,"Non-HDL-C Week 8 change, LS Mean ± SE",10 mg once daily,-39.9 ± 3.15%
same,"TG Week 8 change, LS Mean ± SE",10 mg once daily,2.45 ± 5.27%
same,"VLDL-C Week 8 change, LS Mean ± SE",10 mg once daily,3.08 ± 5.19%
same,"LDL-C (PUC) Week 8 change, LS Mean ± SE",10 mg once daily,-46.8 ± 3.23%
same,"ApoB, % change from Baseline Median",10 mg once daily,"-29.75% and -29.8 (-58.4, 13.0) %"
same,"HDL-C, % change from Baseline Median",10 mg once daily,"165% and 165 (55.1, 286) %"
same,"LDL-C by Friedewald, % Change from Baseline (median)",10 mg once daily,"-45.65% and -45.7 (-78.0, 26.2) %"
same,"LDL-C by PUC, % Change from Baseline (median)",10 mg once daily,"-50.8% and -50.75% and -50.8 (-76.9, 15.6) %"
same,"Non-HDL-C, % Change from Baseline (median)",10 mg once daily,"-44.4% and -44.4 (-70.2, 22.5) %"
same,"LDL-C by PUC, % Change from Baseline (median)",[4],-50.8%
same,"LDL-C by Friedewald, % Change from Baseline LS mean",10 mg once daily,-44.15% and -44.2 ± 3.46%
same,LDL-C reduced from baseline (Friedewald formula),10 mg,45.7%
same,Apo B reduced by,10 mg,29.8%
same,Lp(a) reduced by,10 mg,56.5%
same,non-HDL-C reduced by,10 mg,44.4%
same,median Apo B reductions from baseline,"10 mg, post-hoc analysis, individuals with baseline Apo B >100 mg/dL",39%
